Results from patent US6242446A, “Method for treating attention deficit disorder” (Merck & Co., Inc., priority 2000, dated 2001).
Where two headings read alike, the source gives them in different places.

Legend:
foot tapping in gerbils = assay: Gerbil Foot-Tapping Assay (induced by central injection of an NK1 agonist); assay type: in vivo, Mongolian gerbils; details: Meriones unguiculatus, iv
Description: Gerbil Foot-Tapping Assay CNS penetrant NK-1 receptor antagonists for use in the resent invention can be identified by their ability to inhibit foot tapping in gerbils induced by anxiogenic agents (such as pentagastrin) or central infusion of NK-1 receptor agonists such as GR-73632, or caused by aversive stimulation such as foot shock or single housing, based on the method of Rupniak & Williams, Eur. J. Pharmacol., 1994, 265, 179. Male or female Mongolian gerbils (35-70 g) are anaesthetised by inhalation of an isoflurane/oxygen mixture to permit exposure of the jugular vein in order to permit administration of test compounds or vehicle in an injection volume of 5 ml/kg i.v. Alternatively, test compounds may be administered orally or by subcutaneous or intraperitoneal routes. The wound is closed and a second skin incision is made in the midline of the scalp to expose the skull. […] The duration and/or intensity of hind foot tapping is then recorded continuously for 5 minutes. Alternatively, the ability of test compounds to inhibit foot tapping evoked by aversive stimulation, such as foot shock or single housing, may be studied using a similar method of quantification.

[1] = system: cisplatin-induced emesis in ferrets; assay: Ferret Emesis Assay (cisplatin-induced emesis); assay type: in vivo; details: Mustela putorius, po; cisplatin 10 mg/kg i.v.; 4 hours observation; read-out: ferret emesis ID90
Description: Individually housed male ferrets (1.0-2.5 kg) are dosed orally by gavage with test compound. Ten minutes later they are fed with approximately 100 g of tinned cat food. At 60 minutes following oral dosing, cisplatin (10 mg/kg) is given i.v. via a jugular vein catheter inserted under a brief period of halothane anaesthesia. The catheter is then removed, the jugular vein ligated and the skin incision closed. The ferrets recover rapidly from the anaesthetic and are mobile within 10-20 minutes. The animals are observed continuously during recovery from the anaesthetic and for 4 hours following the cisplatin injection, after which time the animals are killed humanely. The numbers of retches and vomits occurring during the 4 hours after cisplatin administration are recorded by trained observers.

[2] = system: distress vocalisations in guinea-pig pups; assay: Separation-Induced Vocalisation Assay; assay type: in vivo, guinea-pigs; details: Cavia porcellus, po; 4 hr. pre-treatment; read-out: guinea-pig vocalisation (4 hr. pre-treatment) ID50
Description: Separation-Induced Vocalisation Assay Male and female guinea-pigs pups are housed in family groups with their mothers and littermates throughout the study. Experiments are commenced […] when the pups are 2 weeks old. Before entering an experiment, the pups are screened to ensure that a vigorous vocalisation response is reproducibly elicited following maternal separation. The pups are placed individually in an observation cage (55 cm×39 cm×19 cm) in a room physically isolated from the home cage for 15 minutes and the duration of vocalisation during this baseline period is recorded. Only animals which vocalise for longer than 5 minutes are employed for drug challenge studies (approximately 50% of available pups may fail to reach this criterion). On test days each pup receives an oral dose or a s.c. or i.p. injection of test compound or vehicle and is then immediately returned to the home cage with its mother and siblings for 30 minutes to 60 minutes (or for up to 4 hours following an oral dose, dependant upon the oral pharmacokinetics of the test compound) before social isolation for 15 minutes as described above. The duration of vocalisation on drug treatment days is expressed as a percentage of the pre-treatment baseline value for each animal. The same subjects are retested once weekly for up to 6 weeks. Between 6 and 8 animals receive each test compound at each dose tested. […]

C[C@@H](O[C@H]1OCCN(Cc2n[nH]c(=O)[nH]2)[C@H]1c1ccc(F)cc1)c1cc(C(F)(F)F)cc(C(F)(F)F)c1 [2-(R)-(1-(R)-(3,5-bis(trifluoromethyl)-phenyl)-ethoxy)-3-(S)-(4-fluorophenyl)-4-(3-(5-oxo-1H,4H-1,2,4-triazolo)methyl)-morpholine]
ED50 (foot tapping in gerbils; 5 min, i.v., 5 mins., read-out: gerbil foot-tapping (5 mins.) ID50): 0.36 mg/kg | ED50 (foot tapping in gerbils; 24 hrs. prior to central NK1 agonist challenge, read-out: gerbil foot-tapping (24 hrs.) ID50): 0.33 mg/kg | ED90 [1]: < 3 mg/kg | ED50 [2]: 0.73 mg/kg
